Measurements published in BindingDB's records for patent US10519177 (Plexxikon Inc., 2019).

Biological target: T1, Bromodomain-containing protein 4 [1-477] (Human, UniProt O60885)
T1 construct: 1-477

IC50 [nM] | Compound
< 1000 | Cc1noc(C)c1-c1cnc2c(-c3ccc(C(=O)O)cc3)cn(CC3CC4(CCC4)C3)c2c1 [US10519177, Compound P-0603]
< 1000 | Cc1noc(C)c1-c1cnc2c(I)cn(Cc3ccccc3C#N)c2c1 [US10519177, Compound P-0921]
< 1000 | COC(=O)c1ccc(-c2c[nH]c3cc(-c4c(C)noc4C)cnc23)cc1 [US10519177, Compound P-1033]
